Measurements published in US20140171404A1, “Autotaxin inhibitors” (NOVARTIS AG, priority 2012, published 2014).

The molecules below were run against T1, Recombinant human ATX (Homo sapiens, UniProt Q13822) (assay: Assessing ATX inhibition: released choline, Amplex Red fluorescence). Details: ATX 10 nM, LPC 18:1 10 μM, pre-incubated with ATX at 37° C. for 20 minutes; Table 1, exemplified compounds; read-out: IC50.
T1 construct: made in house; host or cells: human embryonic kidney (HEK) cells
Assay type: biochemical
Experimental: LPC (oleoyl (18:1)) was purchased from Avanti Polar Lipids (Alabaster; AL) and solubilized in methanol to 20 mM. Amplex Red was obtained from Invitrogen Life Technologies (Paisley, UK) and dissolved in DMSO to 10 mM. Choline oxidase and horseradish peroxidase (HRP) were obtained from Sigma Aldrich (Dorset, UK) and dissolved in HBSS to 20 U/ml and 200 U/ml respectively. All reagents were stored at −20° C. in single use aliquots. All experimental measurements were performed in assay buffer made up immediately prior to use (HBSS, 0.01% BSA essentially fatty acid free).
Recombinant human ATX was prepared at Novartis (Basel, CH) in a human embryonic kidney (HEK) cell preparation, and stored in single use aliquots of […] (26 μM) stocks stored at −80° C.
All experimental measurements were performed in black 384 well polystyrene (low volume, round bottom, Corning (3676)) plates. PerkinElmer EnVision (Fluorescence Intensity/Absorbance Monochromator) or Tecan Infinite 200 PRO series plate reader was used to detect change in fluorescent intensity.
ATX activity was determined by measurement of released choline in reactions containing ATX (10 nM), choline oxidase (0.1 U/ml), HRP (100 U/ml), amplex red (50 μM) and LPC 18:1 (10 μM). Compounds of the invention were prepared as 10 point serial dilutions from 1 μM in duplicate and pre-incubated with ATX at 37° C. for 20 minutes prior to the addition of remaining reagents. The liberated choline was measured from changes in fluorescence intensity (λex 530 nm, λem 590 nm) of the product resurofin at 37° C. every 2 minutes over a 40-minute period. ATX activity was measured as a slope of the linear portion of the progress curve, typically between 14 to 24 minutes.
Slope data was exported to Graphpad prism (Graphpad software, San Diego, Calif.) where data was fitted to equation 1.
Y=Bottom+(Top−Bottom)/(1+10̂((Log IC50−X)*HillSlope)) Equation 1: […]

Question: `CN(CCC1CCN(C(=O)OCc2cc(Cl)cc(Cl)c2)CC1)C(=O)c1cc(O)no1` [Example 1, 3,5-Dichlorobenzyl 4-(2-(3-hydroxy-N-methylisoxazole-5-carboxamido)ethyl) piperidine-1-carboxylate] was tested. Which IC50 did it give?
Answer: 644 nM

Question: Which IC50 does the source give for `COc1c(N(C)CCC2CCN(C(=O)OCc3cc(Cl)cc(Cl)c3)CC2)c(=O)c1=O` [Example 2] here?
Answer: 248 nM

Question: `CCOc1c(NCCC2CCN(C(=O)OCc3cc(Cl)cc(Cl)c3)CC2)c(=O)c1=O` [Example 3] was tested. Which IC50 did it give?
Answer: 445 nM

Question: `O=C(OCc1cc(Cl)cc(Cl)c1)N1CCC(CCNc2c(O)c(=O)c2=O)CC1` [Example 4] was tested. Which IC50 did it give?
Answer: 728 nM

Question: `CC1CC(CNC(=O)CCc2cc(O)no2)CCN1C(=O)OCc1cc(Cl)cc(Cl)c1` (stereo not shown) [Example 5] was tested. Which IC50 did it give?
Answer: 313 nM

Question: How did the IC50 turn out when `CN(CCC1CCN(C(=O)OCc2cc(Cl)cc(Cl)c2)CC1)C(=O)Cc1c[nH]nn1` [Example 6, 3,5-Dichlorobenzyl 4-(2-(N-methyl-2-(1H-1,2,3-triazol-4-yl)acetamido)ethyl)piperidine-1-carboxylate] was run?
Answer: 62 nM

Question: Which IC50 does the source give for `O=C(Cc1c[nH]nn1)NCCC1CCN(C(=O)OCc2cc(Cl)cc(Cl)c2)CC1` [Example 7, 3,5-Dichlorobenzyl 4-(2-(2-(1H-1,2,3-triazol-4-yl)acetamido)ethyl)piperidine-1-carboxylate] here?
Answer: 28 nM

Question: How did the IC50 turn out when `Cc1oc(=O)[nH]c1C(=O)N(C)CCC1CCN(C(=O)OCc2cc(Cl)cc(Cl)c2)CC1` [Example 8, 3,5-Dichlorobenzyl 4-(2-(N,5-dimethyl-2-oxo-2,3-dihydrooxazole-4-carboxamido)ethyl)piperidine-1-carboxylate] was run?
Answer: 360 nM

Question: `O=C(/C=C/c1c[nH]cn1)NC1CCN(C(=O)OCc2cc(Cl)cc(Cl)c2)CC1` [Example 9, (E)-3,5-Dichlorobenzyl 4-(3-(1H-imidazol-4-yl)acrylamido)piperidine-1-carboxylate] was tested. Which IC50 did it give?
Answer: 109 nM

Question: For `O=C(O)CCCCC(=O)NC1CCN(C(=O)OCc2cc(Cl)cc(Cl)c2)CC1` [Example 10, 6-((1-(((3,5-Dichlorobenzyl)oxy)carbonyl)piperidin-4-yl)amino)-6-oxohexanoic acid], which IC50 is on record?
Answer: 543 nM

Question: Which IC50 does the source give for `CCOc1c(NCCC2CN(C(=O)OCc3cc(Cl)cc(Cl)c3)CCO2)c(=O)c1=O` (stereo not shown) [Example 11, 3,5-Dichlorobenzyl 2-(2-((2-ethoxy-3,4-dioxocyclobut-1-en-1-yl)amino)ethyl)morpholine-4-carboxylate] here?
Answer: 51 nM

Question: With `O=C(NCCC1CN(C(=O)OCc2cc(Cl)cc(Cl)c2)CCO1)c1c[nH]c(=O)o1` (stereo not shown) [Example 12, 3,5-Dichlorobenzyl 2-(2-(2-oxo-2,3-dihydrooxazole-5-carboxamido)ethyl)morpholine-4-carboxylate] as the molecule, how does the IC50 read?
Answer: 520 nM

Question: For `CN(CCC1CN(C(=O)OCc2cc(Cl)cc(Cl)c2)CCO1)C(=O)c1c[nH]c(=O)o1` (stereo not shown) [Example 13, 3,5-Dichlorobenzyl 2-(2-(N-methyl-2-oxo-2,3-dihydrooxazole-5-carboxamido)ethyl)morpholine-4-carboxylate], which IC50 is on record?
Answer: 828 nM

Question: With `CCOc1c(N(C)CCC2CN(C(=O)OCc3cc(Cl)cc(Cl)c3)CCO2)c(=O)c1=O` (stereo not shown) [Example 14, 3,5-Dichlorobenzyl 2-(2-((2-ethoxy-3,4-dioxocyclobut-1-en-1-yl)(methyl)amino)ethyl)morpholine-4-carboxylate] as the molecule, how does the IC50 read?
Answer: 540 nM

Question: `CN(CCC1CCN(C(=O)OCc2cc(Cl)cc(Cl)c2)CC1)C(=O)c1c[nH]c(=O)s1` [Example 15, 3,5-Dichlorobenzyl 4-(2-(N-methyl-2-oxo-2,3-dihydrothiazole-5-carboxamido)ethyl)piperidine-1-carboxylate] was tested. Which IC50 did it give?
Answer: 29 nM

Question: With `O=C(NCCC1CCN(C(=O)OCc2cc(Cl)cc(Cl)c2)CC1)c1nn[nH]n1` [Example 16, 3,5-Dichlorobenzyl 4-(2-(2H-tetrazole-5-carboxamido)ethyl)piperidine-1-carboxylate] as the molecule, how does the IC50 read?
Answer: 596 nM

Question: For `O=C(CCCc1c[nH]nn1)NC1CCN(C(=O)OCc2cc(Cl)cc(Cl)c2)CC1` [Example 17, 3,5-Dichlorobenzyl 4-(4-(1H-1,2,3-triazol-4-yl)butanamido)piperidine-1-carboxylate], which IC50 is on record?
Answer: 2 nM

Question: `CN(C(=O)CCCc1c[nH]nn1)C1CCN(C(=O)OCc2cc(Cl)cc(Cl)c2)CC1` [Example 18, 3,5-Dichlorobenzyl 4-(N-methyl-4-(1H-1,2,3-triazol-4-yl)butanamido)piperidine-1-carboxylate] was tested. Which IC50 did it give?
Answer: 94 nM

Question: How did the IC50 turn out when `O=C(NCCC1CCN(C(=O)OCc2cc(Cl)cc(Cl)c2)CC1)c1c[nH]c(=O)o1` [Example 21, 3,5-Dichlorobenzyl 4-(2-(2-oxo-2,3-dihydrooxazole-5-carboxamido)ethyl)piperidine-1-carboxylate] was run?
Answer: 106 nM

Question: Which IC50 does the source give for `O=C(CCc1cc(O)no1)NCCC1CCN(C(=O)OCc2cc(Cl)cc(Cl)c2)CC1` [Example 22, 3,5-Dichlorobenzyl 4-(2-(3-(3-hydroxyisoxazol-5-yl)propanamido)ethyl)piperidine-1-carboxylate] here?
Answer: 586 nM

Question: With `O=C(CCc1cc(O)no1)NC1CCN(C(=O)OCc2cc(Cl)cc(Cl)c2)CC1` [Example 23, 3,5-Dichlorobenzyl 4-(3-(3-hydroxyisoxazol-5-yl)propanamido)piperidine-1-carboxylate] as the molecule, how does the IC50 read?
Answer: 396 nM

Question: `CN(CCC1CCN(C(=O)OCc2cc(Cl)cc(Cl)c2)CC1)C(=O)c1coc(=O)[nH]1` [Example 24, 3,5-Dichlorobenzyl 4-(2-(N-methyl-2-oxo-2,3-dihydrooxazole-4-carboxamido)ethyl)piperidine-1-carboxylate] was tested. Which IC50 did it give?
Answer: 624 nM

Question: For `CN(CCC1CCN(C(=O)OCc2cc(Cl)cc(Cl)c2)CC1)C(=O)c1cc(O)[nH]n1` [Example 25, 3,5-Dichlorobenzyl 4-(2-(5-hydroxy-N-methyl-1H-pyrazole-3-carboxamido)ethyl)piperidine-1-carboxylate], which IC50 is on record?
Answer: 520 nM

Question: For `CN(CCCN1CCN(C(=O)OCc2cc(Cl)cc(Cl)c2)CC1)C(=O)c1c[nH]c(=O)o1` [Example 26, 3,5-Dichlorobenzyl 4-(3-(N-methyl-2-oxo-2,3-dihydrooxazole-5-carboxamido)propyl)piperazine-1-carboxylate], which IC50 is on record?
Answer: 156 nM

Question: How did the IC50 turn out when `O=C(NCCN1CCN(C(=O)OCc2cc(Cl)cc(Cl)c2)CC1)c1c[nH]c(=O)o1` [Example 27, 3,5-Dichlorobenzyl 4-(2-(2-oxo-2,3-dihydrooxazole-5-carboxamido)ethyl)piperazine-1-carboxylate] was run?
Answer: 375 nM

Question: With `CN(CCC1CCN(C(=O)OCc2cc(Cl)cc(Cl)c2)CC1)C(=O)c1noc(=O)[nH]1` [Example 28, 3,5-Dichlorobenzyl 4-(2-(N-methyl-5-oxo-4,5-dihydro-1,2,4-oxadiazole-3-carboxamido)ethyl)piperidine-1-carboxylate] as the molecule, how does the IC50 read?
Answer: 786 nM

Question: `CN(CCC1CCN(C(=O)OCc2cc(Cl)cc(Cl)c2)CC1)C(=O)c1nn[nH]n1` [Example 29, 3,5-Dichlorobenzyl 4-(2-(N-methyl-2H-tetrazole-5-carboxamido)ethyl)piperidine-1-carboxylate] was tested. Which IC50 did it give?
Answer: 541 nM

Question: `CN(CCC1CCN(C(=O)/C=C/c2cc(Cl)cc(Cl)c2)CC1)C(=O)c1c[nH]c(=O)o1` [Example 30, (E)-N-(2-(1-(3-(3,5-Dichlorophenyl)acryloyl)piperidin-4-yl)ethyl)-N-methyl-2-oxo-2,3-dihydrooxazole-5-carboxamide] was tested. Which IC50 did it give?
Answer: 274 nM

Question: How did the IC50 turn out when `O=C(NCCC1CCN(C(=O)/C=C/c2cc(Cl)cc(Cl)c2)CC1)c1c[nH]c(=O)o1` [Example 31, (E)-N-(2-(1-(3-(3,5-Dichlorophenyl)acryloyl)piperidin-4-yl)ethyl)-2-oxo-2,3-dihydrooxazole-5-carboxamide] was run?
Answer: 387 nM

Question: Which IC50 does the source give for `O=C(CCc1cc(O)no1)NCC1CCN(C(=O)OCc2cc(Cl)cc(Cl)c2)CC1` [Example 33, 3,5-Dichlorobenzyl 4-((3-(3-hydroxyisoxazol-5-yl)propanamido)methyl)piperidine-1-carboxylate] here?
Answer: 131 nM

Question: With `O=C(NCCCN1CCN(C(=O)OCc2cc(Cl)cc(Cl)c2)CC1)c1c[nH]nn1` [Example 34, 3,5-Dichlorobenzyl 4-(3-(1H-1,2,3-triazole-4-carboxamido)propyl)piperazine-1-carboxylate] as the molecule, how does the IC50 read?
Answer: 282 nM

Question: How did the IC50 turn out when `CN(CCC1CCN(C(=O)OCc2cc(Cl)cc(Cl)c2)CC1)C(=O)c1c[nH]nn1` [Example 35, 3,5-Dichlorobenzyl 4-(2-(N-methyl-1H-1,2,3-triazole-4-carboxamido)ethyl)piperidine-1-carboxylate] was run?
Answer: 175 nM

Question: Which IC50 does the source give for `O=C(CCCc1c[nH]nn1)NC1CCN(C(=O)OCc2cc(F)cc(Cl)c2)CC1` [Example 37, 3-Chloro-5-fluorobenzyl 4-(4-(1H-1,2,3-triazol-4-yl)butanamido)piperidine-1-carboxylate] here?
Answer: 55 nM

Question: How did the IC50 turn out when `O=C(CCCc1c[nH]nn1)NC1CCN(C(=O)/C=C/c2cc(Cl)cc(Cl)c2)CC1` [Example 38, (E)-N-(1-(3-(3,5-Dichlorophenyl)acryloyl)piperidin-4-yl)-4-(1H-1,2,3-triazol-4-yl)butanamide] was run?
Answer: 21 nM
